Assay results reported in PubChem BioAssay (NCI).
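A five-concentration, 48-hour dose response in 96-well plates underlies each endpoint, interpolated linearly between surrounding concentrations. TGI: concentration producing complete growth inhibition.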

How the values were obtained:
Test in all cases: DTP human tumour cell line panel, 48 h
A498 renal = tested on: A498 renal
CCRF-CEM leukemia = tested on: CCRF-CEM leukemia
HOP-92 NSCLC = tested on: HOP-92 NSCLC
IGROV1 ovarian = tested on: IGROV1 ovarian
KM12 colon = tested on: KM12 colon
MALME-3M melanoma = tested on: MALME-3M melanoma
NCI-H23 lung = tested on: NCI-H23 lung
OVCAR-5 ovarian = tested on: OVCAR-5 ovarian
RPMI-8226 leukemia = tested on: RPMI-8226 leukemia
SF-295 CNS = tested on: SF-295 CNS
SN12C renal = tested on: SN12C renal
UACC-257 melanoma = tested on: UACC-257 melanoma
UO-31 renal = tested on: UO-31 renal
SNB-75 CNS = tested on: SNB-75 CNS

Row | SMILES | TGI (A498 renal) [µM] | TGI (CCRF-CEM leukemia) [µM] | TGI (HOP-92 NSCLC) [µM] | TGI (IGROV1 ovarian) [µM] | TGI (KM12 colon) [µM] | TGI (MALME-3M melanoma) [µM] | TGI (NCI-H23 lung) [µM] | TGI (OVCAR-5 ovarian) [µM] | TGI (RPMI-8226 leukemia) [µM] | TGI (SF-295 CNS) [µM] | TGI (SN12C renal) [µM] | TGI (UACC-257 melanoma) [µM] | TGI (UO-31 renal) [µM] | TGI (SNB-75 CNS) [µM]
1 | CN(C)CCCNc1ccc2nnn3c4ccc(OC(=O)c5ccc([N+](=O)[O-])cc5)cc4c(=O)c1c23 | 49.1 | 5.39 | > 57.6 | > 100 | 21.3 | 27.2 | 24.5 | 28 | 18.6 | 20.5 | 19.6 | 31 | 21 | 
2 | Nc1cccc(C#Cc2cccc(C#Cc3cccc(N)n3)n2)n1 | > 100 | 31.4 | > 100 | > 100 | > 100 |  | > 100 | > 100 | > 100 | > 100 | > 100 | > 100 | > 100 | > 100
3 | O=C(NCC(C(=O)OCc1ccccc1)C(=O)OCc1ccccc1)OCc1ccccc1 |  |  | > 100 | > 100 | > 100 | > 100 | > 100 | > 100 | > 100 | > 100 | > 100 | > 100 | > 100 | > 100
4 | CC(C)(C)N(Cc1ccoc1)C(=O)/C=C\S(=O)c1ccccc1 (centres undefined) | 68.1 | > 100 | 34.4 | 32.9 | 34.5 |  | 32.3 | 59.2 | 89.6 | > 100 | 58.5 | 46.1 | 27.6 | 
5 | Clc1ccccc1-c1nnc2c(-c3ccccc3)nc3ccccc3n12 | > 100 | 83.2 | > 100 | > 100 | > 100 | > 100 | > 100 | > 100 | > 100 |  | > 100 | > 100 |  | 
6 | FC(F)(F)C1(C(F)(F)F)O[SiH]2(OC(C(F)(F)F)(C(F)(F)F)c3ccccc32)c2ccccc21 |  |  |  |  | 62.5 | 42 | 24.5 | 28.4 | 97.4 | 20.3 | 63.1 | 54.6 | 30.7 | 
7 | O=C(n1c(=O)n(-c2ccc(Cl)cc2)c(=O)n1C(=O)C(Cl)(Cl)Cl)C(Cl)(Cl)Cl | > 100 | > 100 | > 100 | > 100 | > 100 | > 100 | > 100 |  | > 100 | > 100 | > 100 | > 100 | > 100 | 
8 | C=CCCCCCC(O)C(O)C/C=C\C/C=C\CC (centres undefined) |  | > 18.8 | > 18.8 | > 18.8 | > 18.8 | > 18.8 | > 18.8 | > 18.8 | > 18.8 | > 18.8 | > 18.8 | > 18.8 | > 18.8 | > 18.8
9 | CN(C)c1ccc(N=Nc2cccc3ncccc23)cc1 |  | > 100 | > 100 | > 100 | > 100 | > 100 | > 100 |  | > 68.1 | > 100 | > 100 | > 100 | > 100 | > 100
10 | CC1=NN(C(=O)c2ccccc2O)C(c2ccccc2Cl)C1C(=O)Nc1ccccc1 (centres undefined) |  | 0.245 | > 100 | > 32.4 | > 100 | 51.9 | > 100 | > 43.7 | > 90.8 | > 100 | > 44.8 | > 100 |  | 
11 | O=C(CN1CCOCC1)Nc1ccc2c(c1)C1Oc3ccccc3CC1CO2 (centres undefined) | > 100 | > 100 | > 100 | > 100 | > 100 | > 100 | > 100 | > 100 | > 100 | > 100 | > 100 | > 100 | > 100 | 
12 | COC(=O)CC1(O)C(/C=C/c2ccccc2)C(C(=O)OC)C(=O)C(C(=O)OC)C1C(=O)OC (centres undefined) | > 100 | > 100 | > 100 | > 100 | > 100 | > 100 | > 100 | > 100 | > 100 | > 100 | > 100 | > 100 | > 100 | 
13 | COc1ccc([C@H](NC(=O)c2ccccc2)[C@@H](O)C(=O)O[C@H]2C[C@@]3(O)C(OC(=O)c4ccccc4)C4[C@](C)(C(=O)[C@H](OC(C)=O)C(=C2C)C3(C)C)[C@@H](O)C[C@H]2OC[C@@]42OC(C)=O)cc1 (some centres undefined) |  | > 10 | > 10 | > 10 |  | > 10 | > 10 | > 10 | > 10 | 2.92 | > 10 | > 10 |  | 0.0589
14 | O=CC1C[C@@H](N2C(=O)O[C@@H](c3ccccc3)[C@H]2c2ccccc2)[C@@H]1COCc1ccccc1 (some centres undefined) | 49.2 |  | 30.3 | 35.4 | > 100 | 31.5 | 33.4 | 52.3 | > 100 | 39.9 | 48 | 41.7 | 29.3 | 
15 | COc1ccc2c(c1)N=C1CSC(c3c(Cl)cccc3[N+](=O)[O-])N1C2 (centres undefined) |  |  | > 100 | > 100 | > 100 | > 100 | > 100 | > 100 | 84.6 | > 100 | > 100 | > 100 | > 100 | 98.5
16 | CCOC(=O)c1nc2ccccc2nc1Oc1ccc(OC)cc1 | > 100 | > 100 | > 100 | > 100 | > 100 | > 100 |  | > 100 | > 100 | > 100 | > 100 | > 100 | > 100 | 
17 | CC(=O)OC[C@@H](OC(C)=O)[C@@H](OC(C)=O)[C@H]1OC[C@@H]2C[C@H]([C@H]1OC(C)=O)N(Cc1ccccc1)O2 |  | > 100 | > 100 | > 100 | > 100 | > 100 | > 100 | > 100 | > 100 | > 100 | > 100 | > 100 | > 100 | > 100
18 | COc1cc(C2(O)c3ccccc3C3=NCCN32)cc(OC)c1OC (centres undefined) | > 100 | > 100 | > 100 |  | > 100 |  | > 100 |  | > 100 | > 100 | > 100 | > 100 | > 100 | > 100
19 | CCN(CC)CCC(=O)c1ccc(Oc2ccccc2)cc1 |  | 51.3 | 30.1 | 33.3 | 27.4 | 30.1 | 78.5 | 46.4 | 39.2 | > 100 | 31.4 | 33.5 |  | 52
20 | CCOC(=O)C1=NN(c2ccccc2)C2=CC(C)=NN(C)C(=S)N21 |  | > 100 | > 100 | > 100 | > 100 |  | > 100 | > 100 | > 100 | > 100 | > 100 | > 100 | > 100 | > 100
21 | O=[N+]([O-])/C=C/COCc1cc2c(cc1Br)OCO2 | 86.4 | 11.5 | 65.3 | > 100 | 33.8 |  |  | 34.3 | > 100 | > 100 | 35.7 | 33.3 | 32.3 | 31.7
22 | N#CC(NNC(=O)c1ccccc1O)c1ccccc1 (centres undefined) |  | > 100 | > 100 | > 100 | > 100 | > 100 | > 100 | > 100 | > 100 | > 100 | > 100 | > 100 | 6.03 | > 100
23 | C/C(=N\NC(=S)NNC(=S)N(C)c1ccccc1)c1ccccn1 |  |  | 26.6 |  | > 100 | 20.3 | > 100 | > 100 | > 30.4 | > 100 | 12.8 | > 100 | 7.59 | > 100
24 | COc1cc(C2c3cc4c(cc3OC(NCc3ccccc3)C2C)OCO4)cc(OC)c1OC (centres undefined) | > 100 | 26.5 | 20.3 | > 36.5 | 5.69 | 0.671 | > 48.2 | > 100 | 24.2 | 0.673 | > 52.1 | > 100 | 26.4 | 
25 | COc1cc(-c2oc(C=Nc3ccccc3)c([N+](=O)[O-])c2-c2ccc(O)c(OC)c2)ccc1O |  | > 100 | > 51.9 | 52.5 | > 85.4 |  | 33.9 | > 89.6 | 72.4 | > 95.7 | > 74.4 | > 73.6 | 29.6 | 64.4
26 | CN(C)/C=C/c1ccncc1 | > 100 | > 100 | > 100 | > 100 | > 100 | > 100 | > 100 | > 100 | > 100 | > 100 | > 100 | > 100 | > 100 | 
27 | O=C(Cc1ccccc1)NNc1nc(NNC(=O)c2ccncc2)nc(Nc2ccc(Cl)cc2)n1 |  | > 10 | > 10 | > 10 | > 10 | > 10 | > 10 |  | > 10 |  | > 10 | > 10 | > 10 | > 10
